Reference: publication PMC9763021, “Comprehensive Assessment of Biomolecular Interactions of Morpholine-Based Mixed Ligand Cu(II) and Zn(II) Complexes of 2,2′-Bipyridine as Potential Anticancer and SARS-CoV-2 Agents: A Synergistic Experimental and Structure-Based Virtual Screening” (Bioinorganic Chemistry and Applications, 2022)

Assays:
[1] = target: BSA (Bos taurus, UniProt P02769); test: FRET computation, donor (BSA) - acceptor (compound); assay type: binding, bovine; set-up: kET (rate of energy transfer): unit not given here; settings: for J, spectral overlap integral: BSA donor, compound acceptor; for B (brightness of complex-BSA system): free BSA = 6,573.60
[2] = system: Mucor indicus; test: Agar disc diffusion, strain J; assay type: cell-based; set-up: (inhibition %): concentration or dose not given beside the values; settings: for diameter of the clear zone inhibition: control = 6 mm
Method: (§1) In-vitro antimicrobial properties were evaluated for all samples by the agar disc diffusion method towards different fungal and bacterial strains. Additionally, the reported inhibition zone values were comparatively analyzed with the standard antifungal drugs ketoconazole and amphotericin B as well as the standard antibiotic medications streptomycin and amikacin.
(§2) The current research has a curious focus on the in vitro antimicrobial properties of biological systems because these studies are crucial for developing effective antibacterial and antifungal medications. […] It can also be spelled out based on the chelation theory proposed by Overtone and Tweedy. Chelation theory points out that the partial exchanging of the positive charge of the metal center with donor moieties, and overlap of the ligand orbitals will reduce the greater degree of the metal ion's polarity, which ultimately rises the delocalization of π and d electrons over the full chelated ring system. By raising the size of the metal ion due to the retarding of polarization, chelation may also enhance the complexes' lipophilic characteristics, which further stimulate the lipid membrane permeability and break down the bacteria' enzymes responsible for cell wall formation, therefore slowing down the regular cell processes. By preventing the production of cell walls/proteins/DNA, including by obstructing folate metabolism and the cytoplasmic membrane, antimicrobial drugs frequently either fully eliminate microbes or only prevent their cell growth. Additionally, the samples' mode of action may be employed in disrupting the cell's respiration process by forming an H-bond during the morpholine-fused iminic group coordinated with the active metal center of its components, inhibiting proliferation of the cell. […] The difference in the antimicrobial efficacy of some of the compounds towards various microorganisms influences on the impermeability of the cells of the germs or the diversity of ribosomes of the microbes. The % of the inhibition of all substances is estimated from (45) (Table 9).
(§3) (A, B, C, D, and E are represented as gram negative bacteria species Escherichia coli, Salmonella enteric serovar typhi, Salmonella enteric serovar typhi, Pseudomonas aeruginosa, and Shigella flexneri, respectively. F & G are denoted as gram positive bacteria species Staphylococcus aureus and Bacillus cereus. H, I, and J are represented as fungal strains Aspergillus niger, Candida albicans, and Mucor indicus. Standard drugs for bacterial strains: Amikacin & Streptomycin Standard drugs for fungal strains: Ketoconazole and Amphotericin B. [Control (DMSO) = 6 mm].(44) Inhibition %=T–C/T×100, where T and C are represented as the diameter of microbial growth of the sample plates and the control plate (6 mm), respectively. Error limits ±2.5–5.0% (P ≤ 0.05).

[3] = system: ethidium bromide bound DNA (CT-DNA); test: Ethidium bromide-DNA fluorescence quenching (emission titration); assay type: binding, calf thymus; settings: for Scatchard analysis KSA / Scatchard analysis n / LWB method KLB: DNA; for Kass (DNA), SV method II / KSV (DNA), SV method I: EB-DNA; for KSV (DNA), SV method I: 610 nm; for Kapp: KEB = 10^7 M^−1 at 50 μM EB; for Kq (DNA), SV method I: Kq=KSV/τ0, τ0 = 10^−8 S; for LWB method KLB: Lineweaver–Burk; for P (DNA), ratio of fluorescence quantum efficiency: intercept of F/F0 vs 1/[DNA]; for n (DNA), SV method II: number of binding sites; for ∆Gb° (DNA), SV method II: –RT lnKass, 298 K
Method: The experiment was performed in the 200 to 800 nm region. This is supporting evidence for the complexes' manner of deoxyribonucleic acid binding. When DNA (200 μM) was present or absent, we carefully monitored the intensity variations between 610 nm and 510 nm during the initial emission and excitation of EB [6, 28, 37]. Similarly, emission titrations for BSA interaction with different concentrations between 2.5 μM and 25 μM for all substances were conducted in a Tris-HCl buffer solution (pH: 7.4) between the regions of 300 nm and 400 nm.
Emission titration is a more sensitive approach to examining the binding tendency between chemical substances and biomolecules. The emission measurements are extensively supported to scrutinize the interacting modes between compounds and deoxyribonucleic acid. In the presence of deoxyribonucleic acid (240 μM) in a Tris-HCl buffer solution (pH: 7.2) at room temperature, none of the test compounds emitted fluorescence. The titrations were also executed with the EB molecule, which is also a comparatively low fluorescence emission in Tris-HCl buffer solution (pH: 7.2) in the free state. […] In the investigation, the addition of sample concentrations (0–240 μM) to the solution of DNA-EB results in a notable reduction in the emission intensity at 610 nm (Figure 5 and Table 4). As a result of intense intercalation, the complexes displace the EB in the DNA-EB adduct, causing the emission intensity to drop. The photoelectron shift from the DNA's guanine base to the excited states may be the cause of the frequency of quenching in the emission of chemicals by DNA. Therefore, EB can be utilized as a fluorescent probing agent in the competitive binding experiment.
K SV is denoted as Stern–Volmer binding constant; Kass is represented as association binding constant; Kapp is represented as apparent binding constant, Kapp=KEB[EB]/[compound]=500/[compound], KEB = 10^7 M^−1 at the concentration of 50 μM EB; Gibb's free energy change ΔGb°=–RT lnKass; Kq is represented as bimolecular quenching rate constant/Stern–Volmer dynamic quenching rate constant (Kq=KSV/τ0), average life time of the biomolecular quenching in the absence of a quencher (τ0) = 10^−8 S; Gibb's free energy change ΔGb°=–RT lnKass (where R = […], T = 298 K); KLB is represented as Lineweaver–Burk (LWB) binding constant; KSA is represented as Scatchard association binding constant; Kapp is denoted as apparent binding constant; n is the number of binding sites; P is a ratio of fluorescence quantum efficiency of DNA bound and free complex (P=ɸb/ɸf), which is obtained as intercept from plot F/F0 vs. 1/[DNA], Error limit is ± 2.5% (P < 0.025).(12) Fcorr=Fobs×e^Aex×dex+Aem×dem/2=Fobs×e^Aex+Aem/2, where Fcorr and Fobs are represented as the IFE-corrected fluorescence and observed (uncorrected) emission intensities, respectively. dex and dem are denoted as the cuvette path lengths in the excitation and emission directions, respectively. Aex and Aem are represented as the change in absorbance at the excitation and fluorescence wavelengths, respectively.(13) F0 /F=1+KSVQ=1+Kq τ0, where [Q] is represented as the sample concentration, the emission intensities F0 and F of DNA/BSA in the absence and presence of the quencher (sample), respectively.(14) F0 /F−1=F0−F/F=KSVQlogF0−F/F=logKass+n logQ, (15) KEBEB=Kappcompound, (16) 1/F0−F=1/F0 KLBQ+1/F0 , (17) γ/CF =KSCn−γ, where γ = [(F0 − F)/F0], and CF is denoted as the concentration of sample alone.
The linear regression correlation coefficient (R^2) values for all substances further confirmed that there is no found inner filter effect due to these values are greater than 0.95. Moreover, the following Stern–Volmer equations (13)–(15) were employed to determine the KSV, Kq, and n values (Table 4). The KSV findings were measured from the slope to intercept ratio of the linear regression plot of F0/F vs. [Q] by the SV method I (Figure S22). […]

[4] = system: Salmonella enteric serovar typhi; test: Agar disc diffusion, strain B; assay type: cell-based; settings: for diameter of the clear zone inhibition: control = 6 mm
Method: as §1, §2, §3

Row | SMILES | E (efficiency of energy transfer) [1] | R0 (Förster radius) [1] [nm] | kET (rate of energy transfer) [1] | r (donor-acceptor separation) [1] [nm] | J, spectral overlap integral [1] | B (brightness of complex-BSA system) [1] [M⁻¹ cm⁻¹] | (inhibition %) [2] [%] | diameter of the clear zone inhibition [2] [mm] | Scatchard analysis KSA [3] [M⁻¹] | Scatchard analysis n [3] | Kass (DNA), SV method II [3] [M⁻¹] | KSV (DNA), SV method I [3] [M⁻¹] | Kapp [3] [M⁻¹] | Kq (DNA), SV method I [3] [M⁻¹ s⁻¹] | LWB method KLB [3] [M⁻¹] | P (DNA), ratio of fluorescence quantum efficiency [3] | n (DNA), SV method II [3] | ∆Gb° (DNA), SV method II [3] [kJM^−1] | (inhibition %) [4] [%] | diameter of the clear zone inhibition [4] [mm]
1 | Oc1ccccc1N=Cc1ccc(N2CCOCC2)cc1 [(HL), 2-(4-morpholinobenzylideneamino)phenol] | 0.3462 | 2.4400 | 5.2957 | 2.7127 | 0.8215 × 10^−14 (LM^−1·cm^3) | 5339.79 | 45 | 11 | 23194 | 1.096 | 9606 | 11636 | 5.829e+06 | 1.1636e+12 | 6985 | 0.0900 | 0.973 | −22.720 | 33 | 09
2 | [Cu+2].[O-]c1ccccc1N=Cc1ccc(N2CCOCC2)cc1.[O-]c1ccccc1N=Cc1ccc(N2CCOCC2)cc1.c1ccc(-c2ccccn2)nc1 [(1a), [Cu(L)2(bpy)]] | 0.5769 | 2.4090 | 13.6340 | 2.2877 | 0.7607 × 10^−14 (LM^−1·cm^3) | 5187.78 | 50 | 12 | 33151 | 1.033 | 50564 | 52474 | 9.894e+06 | 5.2474e+12 | 18846 | 0.2000 | 1.168 | −26.835 | 40 | 10
3 | [O-]c1ccccc1N=Cc1ccc(N2CCOCC2)cc1.[O-]c1ccccc1N=Cc1ccc(N2CCOCC2)cc1.[Zn+2].c1ccc(-c2ccccn2)nc1 [(2a), [Zn(L)2(bpy)]] | 0.5615 | 2.2770 | 10.4206 | 2.1851 | 0.5425 × 10^−14 (LM^−1·cm^3) | 4642.53 | 60 | 15 | 30190 | 0.971 | 17368 | 32694 | 6.569e+06 | 3.2694e+12 | 15630 | 0.1832 | 1.055 | −24.187 | 33 | 09
